Measurements from publication PMC9467556, “Identification of novel pyrrolopyrimidine and pyrrolopyridine derivatives as potent ENPP1 inhibitors” (Journal of Enzyme Inhibition and Medicinal Chemistry, 2022).
Structures can show the parent of a compound that is named as a salt.

What was measured:
[1] = tested on: THP-1 cells; experiment: cell viability assay (MTS); assay type: cell-based, human; details: all concentrations tested
Protocol: Cell viability assay was performed using residual cells after luciferase assay. Cells were analysed using CellTiter 96 Aqueous One Solution Proliferation Assay (MTS, Promega) according to the manufactural protocols. Absorbance signal were measured using microplate reader (TECAN). Results were normalized using DMSO as a control.

[2] = target: CYP3A4 (Homo sapiens, UniProt P08684); experiment: CYP inhibition profile; assay type: in vitro ADME; details: compound 10 μM
CYP3A4, sequence (P08684 whole entry): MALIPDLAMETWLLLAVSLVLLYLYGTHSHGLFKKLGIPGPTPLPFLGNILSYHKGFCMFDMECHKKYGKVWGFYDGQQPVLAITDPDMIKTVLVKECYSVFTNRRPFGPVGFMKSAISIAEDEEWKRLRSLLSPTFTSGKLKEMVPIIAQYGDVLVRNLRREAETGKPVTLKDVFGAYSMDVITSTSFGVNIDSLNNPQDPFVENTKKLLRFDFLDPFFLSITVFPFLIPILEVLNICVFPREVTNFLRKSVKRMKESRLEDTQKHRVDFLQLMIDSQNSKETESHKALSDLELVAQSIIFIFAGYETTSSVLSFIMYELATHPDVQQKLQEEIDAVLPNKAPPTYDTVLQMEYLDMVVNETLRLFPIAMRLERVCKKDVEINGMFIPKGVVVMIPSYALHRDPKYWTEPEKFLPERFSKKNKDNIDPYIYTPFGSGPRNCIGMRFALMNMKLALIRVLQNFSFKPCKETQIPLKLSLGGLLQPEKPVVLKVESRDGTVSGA
Text: Table 3. CYP inhibition profile. | column: % inhibition / CYP3A4

[3] = tested on: interferon stimulated genes (ISG) CXCL10, OAS1, IFITM1 in THP-1 cells; experiment: real-time PCR of interferon stimulated genes; assay type: cell-based, human; details: co-treatment with cGAMP, 4 h, normalized by GAPDH
Protocol: Next, we further explored type I IFN response induced by activation of STING signalling. The gene expression for various interferon stimulated genes (ISGs) such as CXCL10, OAS1, and IFITM1 was analysed by real-time PCR.
Figure 5. Real-time PCR analysis for gene expression of various interferon stimulated genes (ISG), CXCL10, OAS1, and IFITM1. THP-1 cells were stimulated by indicated concentration of 18p for 4 h. The relative gene expression level was normalized by GAPDH as an internal standard. Graphs depict mean and RQ max values.
Cells were harvest and RNA were isolated using NucleoSpin RNA plus (MN) according to the manufacturer’s instructions. Genomic DNA was removed and cDNA was synthesised using an iScript gDNA clear cDNA synthesis kit (Bio-Rad). Expression levels were assessed by real-time PCR (CFX96 Real-Time PCR detection system, Bio-rad) using IQ SYBR green Supermix (Bio-Rad). The mRNA levels were normalized by GAPDH and calculated by comparative Ct method.

[4] = tested on: 4T1 syngeneic mouse tumour model; experiment: 4T1 syngeneic mouse tumour model efficacy; assay type: in vivo; details: 40 mg/kg orally once daily, day 14, 4T1 tumour in BALB/c mice
Protocol: Thus, we evaluated the anti-cancer efficacy in the 4T1 syngeneic mouse tumour model to test the therapeutic potential of 18p. We postulated the marginal amount of cGAMP released by tumour could initiate the synergy effect of 18p, then administrated the compound by single-treatment[5]. After 4T1 tumour cells were implanted and grown in the flank of mice, 18p was orally administered (40 mg/kg) once daily and monitored the tumour volume and body weight of each mouse.
Figure 7. 4 × 10^5 of 4T1 cells were subcutaneously inoculated into right side flank of BLAB/c mice (n = 6). Mice were orally administrated by 18p (40 mg/kg) or vehicle by every day. (a) Tumour growth curve of 18p or vehicle. X-axis indicates days after treatment. (b) Tumour growth (%) on day 14. (c) Body weight of 18p or vehicle. X-axis indicates days after treatment. Statistics for tumour volume and tumour growth were analysed by 2way ANOVA and student t-test. *p < 0.05. **p < 0.01. Graphs are depicted by mean and SD.
The study for murine 4T1 […] was approved by the Institutional Animal Care and Use Committee (IACUC) of the Korea Institute of Science and Technology (KIST-2021–04-048). Female BALB/c mice were 8 weeks obtained from DBL (Korea). […] Tumour volume was calculated by following formula: Tumour volume (mm^3) = 0.5 × [length, (mm) × width, (mm)2].

[5] = tested on: IFN-β secretion in THP-1 cells; experiment: IFN-β cytokine release by ELISA; details: co-treatment with cGAMP, 8 h
Protocol: Extracellular secretion of IFN-β and IP-10 was measured by enzyme-linked immunosorbent assay (ELISA).
THP-1 cells were seeded in 96 well plate and treated with the compounds for 8 h incubation. 100 μL of cell culture supernatant was harvested and analysed using manufactural protocols.

% inhibition CYP3A4 [2]: 8.9%
Compound: CC1(CNS(N)(=O)=O)CCN(c2ncnc3[nH]ccc23)CC1 [18p, N-((4-Methyl-1-(7H-pyrrolo[2,3-d]pyrimidin-4-yl)piperidin-4-yl)methyl)methanesulfamide hydrochloride]
cell viability / toxicity [1]: no obvious toxicity
gene expression of interferon stimulated genes (CXCL10, OAS1, IFITM1) [3]: induced expression of all ISG genes we tested
TGI [4]: 39%
IFN-β cytokine release [5]: secreted more cytokine than with cGAMP alone
